According to patent publication US11365183B2, “Eicosanoid derivatives” (MAX-DELBRUECK-CENTRUM FUER MOLEKULARE MEDIZIN, priority 2009, dated 2022):

How the values were obtained:
[1] = tested on: neonatal rat cardiomyocytes (NRCMs); test: Chronotropic effect on spontaneous beating rate of cultured neonatal rat cardiomyocytes (identification of agonists); assay type: cell-based; details: 30 nM, incubation time 5 min
From the text: This negative chronotropic effect reflects the capacity of the analogs to interact with and to activate a G-protein coupled receptor or other primary cellular targets that reduce the contractility of cardiomyocytes under basal and stress-induced conditions.
The compounds included EPA and 17,18-EETeTr (compounds 01 and 02; purchased from Cayman Chemical) as well as all but one (compound 16) of the analogs synthesized as described in examples 1-24. The R,S— and S,R-enantiomers of 17,18-EETeTr (compounds 03 and 04) were prepared resolving the racemic mixture (compound 02) by means of chiral-phase HPLC as described previously (Barbosa-Sicard E, Markovic M, Honeck H, Christ B, Muller D N, Schunck W H. Biochem Biophys Res Commun. 2005 Apr. 22; 329(4):1275-81). Before use, the compounds to be tested were prepared as 1000-fold stock solutions in ethanol.
Isolation and cultivation of NRCMs were performed as described previously (Wallukat, G; Wollenberger, A. Biomed Biochim Acta. 1987; 78:634-639; Wallukat G, Homuth V, Fischer T, Lindschau C, Horstkamp B, Jupner A, Baur E, Nissen E, Vetter K, Neichel D, Dudenhausen J W, Haller H, Luft F C. J Clin Invest. 1999; 103: 945-952). Briefly, neonatal Wistar rats (1-2 days old) were killed in conformity to the recommendations of the Community of Health Service of the City of Berlin and the cardiomyocytes were dissociated from the minced ventricles with a 0.2% solution of crude trypsin. The isolated cells were then cultured as monolayers on the bottom (12.5 cm^2) of Falcon flasks in 2.5 ml of Halle S M 20-I medium equilibrated with humidified air. The medium contained 10% heat-inactivated FCS and 2 μmol/l fluoro-deoxyuridine (Serva, Heidelberg, Germany), the latter to prevent proliferation of non-muscle cells. The NRCMs (2.4×10^6 cells/flask) were cultured at 37° C. in an incubator. After 5 to 7 days, the NRCMs formed spontaneously beating cell clusters. […] On the day of the experiment, the culture medium was replaced by 2.0 ml fresh serum-containing medium. Two hours later, the beating rates were monitored at 37° C. using an inverted microscope equipped with a heating stage. To determine the basal rate, 6 to 8 individual clusters were selected and the number of contractions was counted for 15 sec. After that, the compound to be tested was added to the culture and the beating rate of the same clusters was monitored 5 min later again. Based on the difference between the basal and compound-induced beating rate of the individual clusters, the chronotropic effects (Δ beats/min) were calculated and are given as mean±SE values. N refers to the number of clusters monitored which originated, in general, from at least three independent NRCM cultures.
This effect was fully expressed using an EPA concentration of 3.3 μM and an incubation time of 30 min. In contrast, 17,18-EETeTr (C02) produced the same effect almost immediately and already in the low nanomolar range (EC50 of 1-2 nM, data not shown). To compare the activity of 17,18-EETeTr with that of its synthetic analogs, all these compounds were tested at a final concentration of 30 nM and using an incubation time of 5 min.

[2] = tested on: neonatal rat cardiomyocytes (NRCMs); test: Response of NRCMs to increased extracellular Ca2+ and ß-adrenergic stimulation; assay type: cell-based; details: 30 nM added 5 min before
Description: Compound C11 was synthesized as described above (example 11). NRCMs were isolated and cultured as in Example 19. The basal Ca^2+-concentration of the medium was 1.2 mM. Increased extracellular Ca^2+-concentrations (2.2, 5.2 and 8.2 mM) were adjusted by adding appropriate amounts of a 1 M CaCl2 solution to the cultures. Isoproterenol (from Sigma-Aldrich) was used as ß-adrenoreceptor agonist and added to the cultures to give final concentrations of 0.1, 1 or 10 μM. C11 was used at a final concentration of 30 nM and added to the cultures 5 min before changing the Ca^2+-concentration or adding isoproterenol. Controls were performed in the absence of C11.

## CCNC(=O)NCCCC/C=C\CCCCCCCCCC(=O)O [Compound C11, 16-(3-Ethylureido)hexadec-11(Z)-enoic Acid]
[1]; NRCM clusters
  chronotropic effect (Δ beats/min), mean±SE: −27.0±1.2 beats/min
[1]; compound alone
  agonistic / chronotropic effect on NRCMs, in words: Agonists
[2]; 1.2 mM Ca2+ and up to 8.2 mM
  beating rate of NRCMs at basal and increased extracellular Ca2+: significantly reduced
[2]; isoproterenol 0.1, 1 or 10 μM
  response of NRCMs to increasing concentrations of isoproterenol: reduced the response
other
  melting point: 83.1 to 83.3 °C
